{"source": "paper PMC12675575", "about": "“A BRET biosensor for measuring uncompetitive engagement of PRMT5 complexes in cells” (Nature Communications, 2025)", "target": "T1, NLuc-PRMT5 co-expressed with WDR77 in HCT116 MTAP wild-type cells (Homo sapiens, UniProt O14744)", "T1 construct": "Horizon Discovery (cells) #PAR-034 and #R02-033 (cells); host or cells: HCT116 MTAP wild-type / MTAP-/-", "T1 sequence (O14744 whole entry)": "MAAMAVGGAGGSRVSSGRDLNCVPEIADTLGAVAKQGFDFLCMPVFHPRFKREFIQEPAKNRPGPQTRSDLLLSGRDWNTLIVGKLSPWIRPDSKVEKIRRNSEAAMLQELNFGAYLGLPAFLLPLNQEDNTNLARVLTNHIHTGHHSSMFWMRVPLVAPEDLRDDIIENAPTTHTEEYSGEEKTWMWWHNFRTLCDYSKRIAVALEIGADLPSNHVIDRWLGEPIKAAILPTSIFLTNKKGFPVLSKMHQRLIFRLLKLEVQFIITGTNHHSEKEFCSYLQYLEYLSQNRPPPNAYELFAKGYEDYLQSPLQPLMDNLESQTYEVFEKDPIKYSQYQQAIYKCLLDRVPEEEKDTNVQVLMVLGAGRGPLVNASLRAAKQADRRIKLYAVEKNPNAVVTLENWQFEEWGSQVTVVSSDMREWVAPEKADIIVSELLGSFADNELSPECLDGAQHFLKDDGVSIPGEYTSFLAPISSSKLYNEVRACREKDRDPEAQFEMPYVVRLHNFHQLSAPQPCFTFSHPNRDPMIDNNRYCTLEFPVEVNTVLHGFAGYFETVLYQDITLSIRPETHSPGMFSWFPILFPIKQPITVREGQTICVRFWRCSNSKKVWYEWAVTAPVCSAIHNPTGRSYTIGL", "T1 sequence (Q9BQA1 whole entry partner)": "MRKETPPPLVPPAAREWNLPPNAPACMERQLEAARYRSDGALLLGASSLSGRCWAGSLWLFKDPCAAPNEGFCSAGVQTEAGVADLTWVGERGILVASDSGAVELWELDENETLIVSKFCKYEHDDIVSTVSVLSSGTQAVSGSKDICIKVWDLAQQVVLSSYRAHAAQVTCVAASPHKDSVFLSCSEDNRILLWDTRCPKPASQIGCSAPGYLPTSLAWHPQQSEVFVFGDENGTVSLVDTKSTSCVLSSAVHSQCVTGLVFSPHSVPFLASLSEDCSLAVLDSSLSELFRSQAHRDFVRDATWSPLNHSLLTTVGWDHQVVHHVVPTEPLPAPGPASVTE", "assay": "Live-cell NanoBRET target engagement in HCT116 MTAP wild-type cells (NLuc-PRMT5 + WDR77)", "assay_type": "cell-based", "conditions": "for BRET, CBH-002 + DMSO: Fig 5A, Log([CBH-002]); for normalized BRET, CBH-002 + DMSO (Figure S6C) / normalized BRET, CBH-002 + GSK3326595 (Figure S6C): log([CBH-002])", "protocol": "HEK293 cells (ATCC) were cultured in DMEM (Thermo Fisher) + 10% (v/v) FBS (Seredigm), and HCT116 cells (Horizon Discovery, #PAR-034 and #R02-033) were cultured in McCoy’s 5A (Thermo Fisher) + 10% FBS, with incubation in a humidified, 37 °C/5% CO2 incubator. Cells were split 1–3 days prior to performing experiments and used at roughly 80% confluency. […] Cells were transfected according to the manufacturer’s protocol using FuGENE HD (Promega). NanoLuc fusion DNA was diluted into Transfection Carrier DNA (Promega) in Opti-MEM at a ratio of 1:9 (mass/mass), and FuGENE HD was added at a ratio of 1:3 (μg DNA:μL lipid). […] Formed complexes were combined with cells resuspended to a density of 2 × 10^5 cells/mL in Opti-MEM + 1% FBS at a ratio of 1:20 (vol:vol). […] Cells were seeded at a density of 2 × 10^5 cells/mL in Opti-MEM + 1% FBS in 100 μL (96-well). The BRET probe CBH-002 was prepared first as a 100× stock in 100% DMSO (Sigma) and then diluted to a 20× stock in NanoBRET Tracer Dilution buffer (Promega). Test compounds were prepared as 1000× stocks in 100% DMSO and diluted to 10× stocks in Opti-MEM to prepare working stocks. […] NanoBRET Complete 3x Substrate was prepared by combining Nano-Glo Substrate and Extracellular NanoLuc Inhibitor in Opti-MEM, according to the manufacturer’s protocol (Promega).\nEC50 values were obtained by fitting the BRET probe and compound affinity curves to a sigmoidal four-parameter fit model in Graphpad Prism:1 Y=Ymin+Ymax−Ymin/1+10^LogEC50−Xh where h is the Hill Slope.\nWhen normalized BRET was used, mBRET values were normalized using2 NormalizedBRET%=(Y−BRETmin)/BRETmax−BRETmin where y = mBRET in the presence of test compound and BRET probe, BRETmin = mBRET at the highest concentration (saturating) of test compound and BRET probe, and BRETmax = mBRET in the presence of vehicle (DMSO) and BRET probe.\nNormalized concentration-response curves showing full competition were fit using a 2-parameter model:3 Y=100/1+10^LogEC50−Xh\nIn situations where only partial competition was observed, the normalized concentration-response curves were fit using Eq. 1 and where Ymin was constrained to >0.", "note": "Values joined by “and” are separate entries in the source; they are usually repeats but may differ in a detail not shown here. Equal entries are not always repeated.", "data": [{"smiles": "O=C(CCc1ccc2n1[B-](F)(F)[N+]1=C(c3ccc[nH]3)C=CC1=C2)NCCCCC(=O)N1CCC(Nc2cc(C(=O)NC[C@H](O)CN3CCc4ccccc4C3)ncn2)CC1", "note": "[CBH-002]", "values": [{"measurement": "BRET, CBH-002 + DMSO", "setting": "uM -0.60", "value": "403 and 799.01 and 758.47"}, {"measurement": "BRET, CBH-002 + DMSO", "setting": "uM -0.90", "value": "393 and 766.11 and 738.99"}, {"measurement": "BRET, CBH-002 + DMSO", "setting": "uM -1.20", "value": "378 and 710.21 and 697.93"}, {"measurement": "BRET, CBH-002 + DMSO", "setting": "uM -1.51", "value": "362 and 618.54 and 616.68"}, {"measurement": "BRET, CBH-002 + DMSO", "setting": "uM -1.81", "value": 323}, {"measurement": "BRET, CBH-002 + DMSO", "setting": "uM -2.71", "value": "68.8 and 69.23 and 65.71"}, {"measurement": "EC50", "setting": "HCT116 wild-type cells, WDR77 co-expression, read-out: CBH-002 apparent affinity (EC50)", "value": 12, "unit": "nM"}, {"measurement": "normalized BRET, CBH-002 + DMSO (Figure S6C)", "setting": "uM = -0.60", "value": 100}, {"measurement": "normalized BRET, CBH-002 + GSK3326595 (Figure S6C)", "setting": "uM = -0.60", "value": "12.6717 and 16.8431 and 16.7636"}, {"measurement": "normalized BRET, CBH-002 + DMSO (Figure S6C)", "setting": "uM = -0.90", "value": "97.4927 and 95.8339 and 97.4011"}, {"measurement": "normalized BRET, CBH-002 + GSK3326595 (Figure S6C)", "setting": "uM = -0.90", "value": "9.237 and 13.3988 and 13.2855"}, {"measurement": "normalized BRET, CBH-002 + DMSO (Figure S6C)", "setting": "uM = -1.20", "value": "93.7318 and 88.7552 and 91.9231"}, {"measurement": "normalized BRET, CBH-002 + GSK3326595 (Figure S6C)", "setting": "uM = -1.20", "value": "5.8269 and 8.083 and 8.045"}, {"measurement": "normalized BRET, CBH-002 + DMSO (Figure S6C)", "setting": "uM = -1.51", "value": "89.7202 and 77.147 and 81.0831"}, {"measurement": "normalized BRET, CBH-002 + GSK3326595 (Figure S6C)", "setting": "uM = -1.51", "value": "3.295 and 4.174 and 4.336"}, {"measurement": "normalized BRET, CBH-002 + DMSO (Figure S6C)", "setting": "uM = -1.81", "value": "79.9418 and 55.2096 and 56.8522"}, {"measurement": "normalized BRET, CBH-002 + GSK3326595 (Figure S6C)", "setting": "uM = -1.81", "value": "1.59 and 1.874 and 2.064"}, {"measurement": "normalized BRET, CBH-002 + DMSO (Figure S6C)", "setting": "uM = -2.11", "value": "57.6271 and 32.8998 and 32.0743"}, {"measurement": "normalized BRET, CBH-002 + GSK3326595 (Figure S6C)", "setting": "uM = -2.11", "value": "0.7121 and 0.8016 and 0.8965"}, {"measurement": "normalized BRET, CBH-002 + DMSO (Figure S6C)", "setting": "uM = -2.41", "value": "31.5515 and 15.8288 and 15.9084"}, {"measurement": "normalized BRET, CBH-002 + GSK3326595 (Figure S6C)", "setting": "uM = -2.41", "value": "0.2206 and 0.2381 and 0.3149"}, {"measurement": "normalized BRET, CBH-002 + GSK3326595 (Figure S6C)", "setting": "uM = -2.71", "value": 0}]}]}
